The source of these data is US4064255A, “Compositions containing new indole derivatives and their use in pharmacology” (Mar-Pha Societe d'Etudes et d'Exploitation de Marques, priority 1975, dated 1977).

Usually LD50 stands for the dose expected to kill half of the subjects tested.

Structures are written as SMILES. Like-named read-outs stand apart in the source and are kept apart here.

Data set [1] is described as follows: acute toxicity in mice (LD50). The data set is classed as in vivo, male mouse CD1 (Charles River). Conditions: mouse, in vivo, male CD1 mice, three days' observation. As for the experimental part:
(§1) The toxicity and acute symptomatologies of the compounds of the invention were determined in the male mouse CD1 (Charles River) in intravenous and oral manner. The LD50 were computed following three days' observation by the cumulative method of Reed & Muench (Am. J. Hyg. 27, 493, 1938).

Data set [2] relates to serotonin (5HT) recapture by brain synaptosomes. In words: in vitro inhibition of serotonin uptake (recapture) by rat-brain synaptosomes. Format: biochemical. The conditions noted are these: for IC50: rat-brain synaptosomes, 5HT, read-out: I50, dose inhibiting 50% of recapture by brain synaptosomes of serotonin (5HT); for selectivity of action on cerebral serotonin: in words. From the text: (§2) The entire disclosure of Kannengiesser et al is relied on in this connection and incorporated herein by reference.

Data set [3] deals with dopamine (DA) recapture by brain synaptosomes. In words: in vitro inhibition of dopamine uptake (recapture) by rat-brain synaptosomes. The data set is classed as biochemical. The conditions noted are these: read-out: I50, dose inhibiting 50% of recapture by brain synaptosomes of dopamine (DA).
Text: as §2

Data set [4] deals with noradrenaline (NA) recapture by brain synaptosomes. In words: in vitro inhibition of noradrenaline uptake (recapture) by rat-brain synaptosomes. Format: biochemical. Conditions: read-out: I50, dose inhibiting 50% of recapture by brain synaptosomes of noradrenaline (NA).
Text: as §2

In a further data set the test system is 5-HTP hypermotility. Put plainly: potentiation of 5-HTP hypermotility in mice. Conditions: 30 min after 5-HTP 150 mg/kg i.p., motility 45th-75th minute. The data set is classed as in vivo, male mouse CD1 (Charles River). As to the method: The effectiveness of the compounds of the present invention in blocking serotonine uptake also was shown using the potentiation test of 5-hydroxy tryptophane (5-HTP).
1, 11-1972. This test consists of looking for the potentiation of the hypermotility induced by 5-HTP. for high dosages the precursor will induce very characteristic hypermotility with jumps.
The animals are divided into groups of 25 mice and treated i.p. with 150 mg/kg of 5-HTP. The products to be tested are administered sub-cutaneously, 30 minutes after the 5-HTP, the control group receiving only the administrative vehicle. The overall motility of the animals is measured from the 45th to the 75th minute after (administration of) the 5-HTP. The results for the treated groups are shown in % increase in motility with respect to the control group.

The next data set relates to mice. In words: acute toxicity in mice (LD50). Format: in vivo, male mouse CD1 (Charles River). The conditions noted are these: intravenous, male CD1 mice, three days' observation; 4320 min. As to the method: as §1
The mark [5] stands for this setting: intravenous, read-out: LD50 I.V.

With `c1ccc2c(CC3CCNCC3)c[nH]c2c1` [Example 11, (INDOLYL-3 METHYL) -4 PIPERIDINE], the 50% lethal dose (LD50) at 72 h was 57 mg/kg in data set [1] (setting [5]) and 225 mg/kg in data set [1] (oral, read-out: LD50 orally). Besides, the IC50 in data set [2] came to 0.15 µM; in data set [3], 4 µM; in data set [4], 5 µM.

In the case of `c1ccc2c(CCCC3CCNCC3)c[nH]c2c1` [Example 13, [(INDOLYL-3)-3 PROPYL]-4 PIPERIDINE], in data set [2], the “selectivity of action on cerebral serotonin” value (shortened to “selectivity of action”) was “act more selectively than clomipramine”. Besides, the results for the IC50 in data set [2], in data set [3] and in data set [4] were 0.04 µM, 5.5 µM and 13 µM, respectively.

`COc1ccc2[nH]cc(C(=O)CC3CCNCC3)c2c1` [Example 2, (METHOXY-5 INDOLYL-3) (PIPERIDYL-4 METHYL) KETONE]: the LD50 at 72 h was 44 mg/kg in data set [1] (setting [5]) and above 900 mg/kg in data set [1] (oral, read-out: LD50 orally). In addition, the IC50 was 0.65 µM in data set [2], 70 µM in data set [3] and 160 µM in data set [4].

With `O=C(CC1CCNCC1)c1c[nH]c2ccc(Cl)cc12` [Example 3, (CHLORO-5 INDOLYL-3) (PIPERIDYL-4 METHYL) KETONE], the LD50 at 72 h in data set [1] (oral, read-out: LD50 orally) lay within 300 to 900 mg/kg. Moreover, the IC50 came to 0.6 µM in data set [2], 12 µM in data set [3] and 30 µM in data set [4].

With `Cn1cc(CCC2CCNCC2)c2ccccc21` [Example 9, [(METHYL-1 INDOLYL-3)-2 ETHYL]-4 PIPERIDINE], the LD50 at 72 h worked out at 44 mg/kg in data set [1] (setting [5]) and 225 mg/kg in data set [1] (oral, read-out: LD50 orally). For the same molecule, the “selectivity of action” value in data set [2] is “act more selectively than clomipramine”. Besides, the IC50 in data set [2] was determined as 0.02 µM; in data set [3], 60 µM; in data set [4], 60 µM. Further, the “Potentiation of 5-HTP hypermotility, % change with respect to controls” value (“Potentiation … % change with respect to controls” below) is on record as “+134%” in the data set on 5-HTP hypermotility (5 mg/kg s.c.) and “+296%” in the data set with 5-HTP hypermotility (25 mg/kg s.c.).

For `CN(C)CCCN1c2ccccc2CCc2ccc(Cl)cc21` [Clomipramine, reference compound], the LD50 at 72 h was found to be 45 mg/kg in data set [1] (setting [5]) and 380 mg/kg in data set [1] (oral, read-out: LD50 orally). Besides, the IC50 in data set [3] came out at 5 µM; in data set [4] it was 7 µM. Also, the “Potentiation … % change with respect to controls” value with 5-HTP hypermotility (15 mg/kg s.c.) is listed as “+190%”.

Turning to `c1ccc2c(CCC3CCNCC3)c[nH]c2c1` [Example 10, [(INDOLYL-3)-2 ETHYL]-4 PIPERIDINE], the LD50 at 72 h in data set [1] (setting [5]) came to 60 mg/kg; in data set [1] (oral, read-out: LD50 orally), 600 mg/kg. Further, the “selectivity of action” value in data set [2] is given as “act more selectively than clomipramine”. Moreover, the results for the IC50 in data set [2], in data set [3] and in data set [4] were 0.04 µM, 4 µM and 8 µM, respectively. The “Potentiation … % change with respect to controls” value with 5-HTP hypermotility (5 mg/kg s.c.) was “+196%”; in the data set with 5-HTP hypermotility (25 mg/kg s.c.), “+262%”.

Take `O=C(CC1CCNCC1)c1c[nH]c2ccccc12` [Example 1, INDOLYL-3 (PIPERIDYL-4 METHYL) KETONE]: the “LD50 I.V.” value with mice is listed as 47 mg/kg. In addition, the “selectivity of action” value in data set [2] is “act more selectively than clomipramine”. For the same molecule, the IC50 in data set [2] came to 0.08 µM; in data set [3] it was 65 µM; in data set [4], 20 µM.
